For one compound, IC50 and anti-tumor activity results are on record in patent US20260315468A1, “PHARMACEUTICAL COMPOSITION AND USE THEREOF” (SHANGHAI ALLIST PHARMACEUTICAL CO., LTD., priority 2022, published 2026).

One assay deals with Ba/F3 EGFR-E709-710 > D. Description: Anti-proliferation, CellTiter-Glo Luminescent Cell Viability Assay. Format: cell-based. The following applies: Mus musculus, BaF3, 72 h, 3 days. The source says: (§1) The objective of the test example 1 was to evaluate the anti-proliferation effect of Furmonertinib mesilate on 18 cell lines (Ba/F3 EGFR-G719S, Ba/F3 EGFR-S768I, Ba/F3 EGFR-G724S, Ba/F3 EGFR-L718Q, Ba/F3 EGFR-Del19/G724S, Ba/F3 EGFR-E709H, Ba/F3 EGFR-L747S, Ba/F3 EGFR-E709V, Ba/F3 EGFR-L747V, Ba/F3 EGFR-E709-710>D, Ba/F3 EGFR-E709A, Ba/F3 EGFR-Del19/C797S, Ba/F3 EGFR-L858R/C797S, Ba/F3 EGFR-L747S/G719A, Ba/F3-EGFR-L858R-L718V, Ba/F3-EGFR-L858R-L718Q, Ba/F3-EGFR-E709K-G719A, and Ba/F3 EGFR-L861Q) using standard CellTiter-Glo® Luminescent Cell Viability Assay. Further, AZD9291 was used as control compound.
(§2) Cell culture: Ba/F3 EGFR-G719S, Ba/F3 EGFR-S768I, Ba/F3 EGFR-G724S, Ba/F3 EGFR-L718Q, Ba/F3 EGFR-Del19/G724S, Ba/F3 EGFR-E709H, Ba/F3 EGFR-L747S, Ba/F3 EGFR-E709V, Ba/F3 EGFR-L747V, Ba/F3 EGFR-E709-710>D, Ba/F3 EGFR-E709A, Ba/F3 EGFR-Del19/C797S, Ba/F3 EGFR-L858R/C797S, Ba/F3 EGFR-L747S/G719A, Ba/F3-EGFR-L858R-L718V, Ba/F3-EGFR-L858R-L718Q, Ba/F3-EGFR-E709K-G719A, and Ba/F3 EGFR-L861Q engineered cells were obtained from Kyinno, and maintained at 37° C. with 5% CO2, in the RPMI1640 media supplemented with 10% fetal bovine serum.
(§3) The cells during the logarithmic growth period were harvested and counted by using blood counting chamber. The cell viability was over 90% which was determined by trypan blue assay. The cell concentration was adjusted with culture medium. 90 μl cell suspensions was added to two 96-well plates to obtain the final cell density of 3000 cells per well. The plates were incubated in humidified incubator at 37° C. with 5% CO2.
(§4) The solution of tested compounds (Furmonertinib mesilate and AZD9291) was diluted 1000-fold with DMSO. Then, said DMSO solution was diluted 100-fold with PBS (Phosphate Buffered Saline) to obtain 10× working solution. And 10× reference control solution was prepared by Phosphate Buffered Saline (PBS). 10 μl working solution (10×) was dispensed to each well (triplicate for each concentration). (The top concentration was 3160 nM, 3.16-fold dilution and 10 different concentrations. The final concentration of DMSO in culture medium was 0.1% [v/v]). The plate was cultured for 3 days.
(§5) On Day 3, CellTiter-Glo® reagent (a luciferase ATP bioluminescence detection reagent) was thawed, and then the cell plate was equilibrated at room temperature for approximately 30 minutes. 100 μl CellTiter-Glo® Reagent which was equal to the volume of cell culture medium present in each well was added. The obtained content was mixed for 5 minutes on an orbital shaker to induce cell lysis. The cell plate was incubated at room temperature for 20 minutes to stabilize luminescent signal. The luminescence was recorded by using Multi-mode Microplate Reader.
(§6) [formula] • blank control: medium control; • vehicle control: culture medium with 0.1% DMSO
(§7) The graphical curves were fitted using a nonlinear regression model with a sigmoidal dose response.
A general note: Cellular ATP, detected with luciferase, serves as a proxy for viable cell number.

The next assay concerns Ba/F3-EGFR-L858R-L718Q. The assay is described as above. To be noted: 72 h, 3 days. Format: cell-based.
Text: as §1, §2, §3, §4, §5, §6, §7

Another assay deals with Ba/F3 EGFR-L718Q. Described as above. Format: cell-based. The following applies: Mus musculus, BaF3, 72 h, 3 days.
Text: as §1, §2, §3, §4, §5, §6, §7

The test system of a further assay is Ba/F3 EGFR-G719S. The description is as above. Format: cell-based. The following applies: Mus musculus, BaF3, 72 h, 3 days.
Text: as §1, §2, §3, §4, §5, §6, §7

The subject of the next assay is Ba/F3-EGFR-L858R-L718V. The description is as above. Format: cell-based. To be noted: 72 h, 3 days.
Text: as §1, §2, §3, §4, §5, §6, §7

The test system of the next assay is Ba/F3 EGFR-L858R/C797S. Described as above. To be noted: Mus musculus, BaF3, 72 h, 3 days. The assay is classed as cell-based.
Text: as §1, §2, §3, §4, §5, §6, §7

The subject of another assay is Ba/F3 EGFR-E709A. Described as above. The following applies: Mus musculus, BaF3, 72 h, 3 days. Format: cell-based.
Text: as §1, §2, §3, §4, §5, §6, §7

For the next assay, the system named is Ba/F3 EGFR-L747S. The description is as above. To be noted: Mus musculus, BaF3, 72 h, 3 days. The assay is classed as cell-based.
Text: as §1, §2, §3, §4, §5, §6, §7

The next assay deals with Ba/F3 EGFR-S768I. The description is as above. The assay is classed as cell-based. The following applies: Mus musculus, BaF3, 72 h, 3 days.
Text: as §1, §2, §3, §4, §5, §6, §7

The test system of assay [1] is Ba/F3 EGFR-G724S. Described as above. Format: cell-based. The following applies: Mus musculus, BaF3, 72 h, 3 days.
Text: as §1, §2, §3, §4, §5, §6, §7

Another assay deals with Ba/F3-EGFR-E709K-G719A. The assay is described as above. The assay is classed as cell-based. To be noted: 72 h, 3 days.
Text: as §1, §2, §3, §4, §5, §6, §7

Assay [2] deals with Ba/F3 EGFR-G724S. Description: Anti-tumor effect in Ba/F3 EGFR-G724S (KC-1385) cell xenograft model. The following applies: orally, once per day, two weeks. Format: in vivo, B-NDG mice. The source says: This study was used for evaluate the anti-tumor efficacy of furmonertinib mesilate in the female (B-NDG) immune deficiency mice bearing tumors of Ba/F3 EGFR-G724S engineered cells.
Experimental animals: B-NDG mice, female, 6-8 weeks, and weighing 18-20 g.
Animal modeling and random grouping: Ba/F3 EGFR-G724S cells were cultivated, cells were collected, and re-suspended and counted in serum-free medium, the re-suspended cells with the addition of a matrigel at 1:1 were subcutaneous inoculated at 1×10^6 cells/0.1 mL in B-NDG mice. When the average tumor volume was about 80-120 mm^3, the animals were randomly grouped into four experiment groups according to the tumor size. Each group contained 12 mice. The grouping day was defined as Day 0, i.e., D0.
The experimental scheme: B-NDG mice were subcutaneously inoculated with Ba/F3 EGFR-G724S cells to establish a cell-line-derived xenograft model. The experiment was divided into 15 mg/kg group of furmonertinib mesilate, 30 mg/kg group of furmonertinib mesilate, 50 mg/kg group of furmonertinib mesilate and vehicle group, wherein each group contained 12 animals, orally administered with the administration volume of 10 uL/g, and the vehicle group was administered with the same amount of vehicle, the administration was carried out once per day and lasted for two weeks. During the whole experiment, the body weight and the tumor sizes of the mice were measured twice each week, and whether or not the presence of toxic reactions was observed.
Tumor Volume (TV) was calculated by: TV=0.5*a*b^2, where a was the long diameter of the tumor and b was the short diameter of the tumor.
The curves for the tumor volume change of four experimental groups were shown in FIG. 1, and the curves for the body weight change of four experimental groups were shown in FIG. 2.

For orientation: IC50 means the concentration needed to halve the response being measured. Higher therefore signals lower potency. For `C=CC(=O)Nc1cc(Nc2nccc(-c3cn(C)c4ccccc34)n2)c(OCC(F)(F)F)nc1N(C)CCN(C)C` [Furmonertinib mesilate], the IC50 in the assay with Ba/F3 EGFR-E709-710 > D is 89.6 nM; with Ba/F3-EGFR-L858R-L718Q, 289 nM; with Ba/F3 EGFR-L718Q it was 501 nM; in the assay on Ba/F3 EGFR-G719S, 12.1 nM; in the assay with Ba/F3-EGFR-L858R-L718V, 23.9 nM; in the assay on Ba/F3 EGFR-L858R/C797S it was 2210 nM. Besides, the IC50 in the assay on Ba/F3 EGFR-E709A worked out at 17.9 nM; with Ba/F3 EGFR-L747S, 15 nM; in the assay on Ba/F3 EGFR-S768I, 21.6 nM; in the assay with Ba/F3 EGFR-G724S [1] it was 21.3 nM; with Ba/F3-EGFR-E709K-G719A, 39 nM. The anti-tumor activity result in the assay on Ba/F3 EGFR-G724S [2] (15 mg/kg) is “moderate anti-tumor activity”; in the assay with Ba/F3 EGFR-G724S [2] (30 mg/kg), “extremely significant anti-tumor activity”; in the assay with Ba/F3 EGFR-G724S [2] (50 mg/kg) it was “extremely significant anti-tumor activity”.
